The values below come from US5470854A, “2-phenylbenzo[B]furans, process for their manufacture and pharmaceutical preparations containing them” (Schering Aktiengesellschaft, priority 1991, dated 1995).

Assay [1] concerns the target T1, oestrogen receptor (Bos taurus, UniProt P49884).
T1 construct: oestrogen receptor of a calf's uterus; from tissue; host or cells: calf uterus
T1 sequence (P49884 1-596): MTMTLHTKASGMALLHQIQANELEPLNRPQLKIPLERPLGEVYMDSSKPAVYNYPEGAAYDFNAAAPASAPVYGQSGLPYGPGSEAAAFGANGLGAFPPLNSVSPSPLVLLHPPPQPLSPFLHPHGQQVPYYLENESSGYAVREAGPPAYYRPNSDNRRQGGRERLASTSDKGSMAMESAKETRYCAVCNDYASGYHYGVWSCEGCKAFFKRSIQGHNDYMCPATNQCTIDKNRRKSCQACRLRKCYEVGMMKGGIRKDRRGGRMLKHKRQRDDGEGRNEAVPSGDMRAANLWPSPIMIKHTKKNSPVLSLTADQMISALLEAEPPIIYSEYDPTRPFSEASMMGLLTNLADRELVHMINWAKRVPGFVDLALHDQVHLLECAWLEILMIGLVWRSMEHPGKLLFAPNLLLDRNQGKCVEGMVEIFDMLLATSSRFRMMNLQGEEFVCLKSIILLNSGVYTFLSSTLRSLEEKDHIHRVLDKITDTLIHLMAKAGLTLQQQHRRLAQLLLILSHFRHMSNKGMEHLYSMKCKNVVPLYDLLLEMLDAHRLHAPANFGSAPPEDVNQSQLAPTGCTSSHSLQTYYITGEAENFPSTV
Description: Relative bonding affinity to the oestrogen receptor (competition with 3H-17β-Estradiol). To be noted: for RBA* (relative bonding affinity to the oestrogen receptor): calves' uteri, in relation to 17β-estradiol = 100. The assay is classed as binding, calf. An excerpt:
The test methodology is described in Cancer Treatment Reviews 1984, 11, 147.
*Relative bonding affinities to the oestrogen receptor of calves' uteri,
in relation to 17β-estradiol = 100

Assay [2] relates to uterus of infantile mice. Description: Uterotrophic test (in-vivo test on infantile mice). The following applies: uterus dry weight (mg)/body weight (g) × 100. As to the method: (§1) The effectiveness of these compounds was found in an in-vivo test on infantile mice. This test is extensively described in Cancer Treatment Reviews 1984, 11, 147, and J. Med. Chem., 1984, 27, 1439.
(§2) ^a dosage/animal, administered s.c. on three consecutive days in oliv
(§3) ^b uterus dry weight (mg)/body weight (g) × 100, determined 24
(§4) hours after the final injection.

In assay [3] the test system is uterus of infantile mice. The experiment in a line: Anti-uterotrophic test (in-vivo test on infantile mice). To be noted: simultaneous 0.4 μg oestron/animal/day; for anti-uterotrophic test, effect: uterus dry weight (mg)/body weight (g) × 100. As to the method: as §1, §2, §3, §4
^c simultaneous administration of 0.4 μg oestron/animal/day.

In assay [4] the test system is human MCF-7 mamma carcinoma cells. The experiment in a line: Effect on cell growth of MCF-7 cells. The assay is classed as cell-based. To be noted: for activity at 10 µM / activity at 1 µM / activity at 0.1 µM / activity at 5 µM: Homo sapiens, MCF7, mean of 16 individual results, read-out: T/C (corrected); for activity at 10 µM: 1 × 10^-5 M; for activity at 1 µM: 1 × 10^-6 M; for activity at 0.1 µM: 1 × 10^-7 M; for activity at 5 µM: 5 × 10^-6 M.
Description: Data given as corrected T/C values (%).
^a Inhibiting effect on MCF7 cells: quotient of optical densities fro
standard deviation through error reckoning according to GAUSS.
^b Substance concentration (mol/1) in incubation medium.
^c Significant p < 0.01 in relation to control group (C).

The mark [5] stands for this setting: 1 μg/animal s.c. on three consecutive days.
The mark [6] stands for this setting: 5 μg/animal s.c. on three consecutive days.
Setting [7] is: 25 μg/animal s.c. on three consecutive days.
[8] abbreviates: 125 μg/animal s.c. on three consecutive days.

On to `Cc1c(-c2ccc(O)cc2)sc2cc(O)ccc12` [Compound 102b, 6-hydroxy-2-(4-hydroxyphenyl)-3-methylbenzo[b]thiophen], for which the “RBA* (relative bonding affinity to the oestrogen receptor)” value in assay [1] was 9,7. Besides, the “uterotrophic test, effect” value in assay [2] (setting [5]) was 10.9 ± 2.1 mg/g × 100; in assay [2] (setting [6]) it was 12.1 ± 1.9 mg/g × 100; in assay [2] (setting [7]), 16.9 ± 2.9 mg/g × 100; in assay [2] (setting [8]) it was 21.9 ± 4.6 mg/g × 100. Moreover, the “anti-uterotrophic test, inhibition” value in assay [3] (5 μg/animal s.c.) was determined as 7%; in assay [3] (25 μg/animal s.c.) it was 30%; in assay [3] (125 μg/animal s.c.), 31%. The “anti-uterotrophic test, effect” value in assay [3] (5 μg/animal s.c.) was 47.0 ± 7.8 mg/g × 100; in assay [3] (25 μg/animal s.c.), 38.5 ± 3.7 mg/g × 100; in assay [3] (125 μg/animal s.c.) it was 38.1 ± 5.8 mg/g × 100. In addition, the “effect on the growth of MCF-7 / hormone-dependent tumour cells, in words” value in assay [4] is reported as “strongly inhibiting effect”. Also, the activity at 10 µM in assay [4] is 10.9 ± 6.7%. Further, the activity at 1 µM in assay [4] was 133 ± 43.4%. In addition, the activity at 0.1 µM in assay [4] was 125 ± 37.2%. Also, in assay [4], the activity at 5 µM worked out at 54.9 ± 17.9%.
On to `CCc1c(-c2ccc(O)cc2)sc2ccc(O)cc12` [Compound 104a, 3-ethyl-5-hydroxy-2-(4-hydroxyphenyl)benzo[b]thiophen], for which the “affinity to the oestrogen (estradiol) receptor, in words” value in assay [1] was “greatest affinity in relation to estradiol”. The “RBA* (relative bonding affinity to the oestrogen receptor)” value in assay [1] is 59,6. The “uterotrophic test, effect” value in assay [2] (0.2 μg/animal s.c. on three consecutive days, 24 hours after final injection) is reported as 27.6 ± 3.8 mg/g × 100; in assay [2] (setting [5]), 30.3 ± 7.7 mg/g × 100; in assay [2] (setting [6]), 38.5 ± 5.4 mg/g × 100; in assay [2] (setting [7]), 44.2 ± 6.6 mg/g × 100; in assay [2] (setting [8]) it was 19.6 ± 5.2 mg/g × 100. Moreover, the “anti-uterotrophic test, inhibition” value in assay [3] (1 μg/animal s.c.) is reported as 32%; in assay [3] (5 μg/animal s.c.), 27%; in assay [3] (125 μg/animal s.c.), 30%. Further, the “anti-uterotrophic test, effect” value amounted to 49.8 ± 1.4 mg/g × 100 in assay [3] (0.2 μg/animal s.c.); 35.3 ± 7.3 mg/g × 100 in assay [3] (1 μg/animal s.c.); 37.0 ± 3.4 mg/g × 100 in assay [3] (5 μg/animal s.c.); 44.1 ± 6.7 mg/g × 100 in assay [3] (25 μg/animal s.c.); 36.3 ± 4.0 mg/g × 100 in assay [3] (125 μg/animal s.c.). Besides, the “effect on the growth of MCF-7 / hormone-dependent tumour cells, in words” value in assay [4] was “strongly inhibiting effect”. Also, the activity at 10 µM in assay [4] worked out at 3.2 ± 3.2%. For the same compound, the activity at 1 µM in assay [4] was determined as 59.1 ± 15.9%. The activity at 0.1 µM in assay [4] amounted to 61.2 ± 22.1%. Also, the activity at 5 µM in assay [4] was found to be 2.4 ± 3.9%.
In the case of `CCc1c(-c2ccc(O)cc2)sc2cc(O)ccc12` [Compound 104b, 3-ethyl-6-hydroxy-2-(4-hydroxyphenyl)benzo[b]thiophen], in assay [1], the “affinity to the oestrogen (estradiol) receptor, in words” value is reported as “greatest affinity in relation to estradiol” and the “RBA* (relative bonding affinity to the oestrogen receptor)” value was 27,6. The “uterotrophic test, effect” value in assay [2] (setting [5]) came to 18.0 ± 4.0 mg/g × 100. For the same compound, the “uterotrophic test, effect” value in assay [2] (setting [6]) was found to be 22.7 ± 5.9 mg/g × 100. Moreover, in assay [2] (setting [7]), the “uterotrophic test, effect” value amounted to 29.3 ± 4.5 mg/g × 100. For the same compound, the “uterotrophic test, effect” value in assay [2] (setting [8]) is given as 39.9 ± 6.1 mg/g × 100. Besides, in assay [3] (5 μg/animal s.c.), the “anti-uterotrophic test, inhibition” value is listed as 32% and the “anti-uterotrophic test, effect” value amounted to 37.9 ± 6.9 mg/g × 100. Besides, in assay [3] (25 μg/animal s.c.), the “anti-uterotrophic test, inhibition” value turned out to be 33% and the “anti-uterotrophic test, effect” value stood at 37.3 ± 4.2 mg/g × 100. In assay [3] (125 μg/animal s.c.), the “anti-uterotrophic test, inhibition” value was determined as 31% and the “anti-uterotrophic test, effect” value was determined as 38.0 ± 5.4 mg/g × 100. Besides, in assay [4], the “effect on the growth of MCF-7 / hormone-dependent tumour cells, in words” value was “strongly inhibiting effect”; the activity at 10 µM was found to be 4.2 ± 6%; the activity at 1 µM came to 91.9 ± 21.2%; the activity at 0.1 µM turned out to be 94 ± 21.2%. In addition, the activity at 5 µM in assay [4] was 5.7 ± 5.8%.
